This test deals with bacterial strain LF82 binding to the glycoprotein BSA-(Mannose)3 (FimH antagonists). The experiment in a line: Bacterial Binding Assay (BBA). In kind it is cell-based, Escherichia coli. The settings on record: read-out: Bacterial Binding Assay IC50 ± SEM. An outline of the steps:
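Luciferase-expressing E. coli LF82, grown overnight at 37 °C without shaking, added as 2×10^8 bacteria/mL suspension with compound in BSA/D-PBS binding buffer. Wells were coated with 0.5–2 μg/mL BSA-(Man)3 and BSA-blocked, with 40–75 min binding at room temperature. After washing, adherent bacteria were read by luciferase luminescence and IC50 derived.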

By IC50 is commonly meant the concentration that inhibits the measured activity by half.

In the case of `Cc1cc(O)ccc1-c1cc(C#C[C@H]2O[C@H](CO)[C@@H](O)[C@H](O)[C@@H]2O)c2[nH]ncc2c1` [Compound 91, (2R,3S,4R,5S,6R)-2-(hydroxymethyl)-6-[2-[5-(4-hydroxy-2-methyl-phenyl)-1H-indazol-7-yl]ethynyl]tetrahydropyran-3,4,5-triol], the IC50 came out at 0.3 ± 0.03 nM.

As to `CCCCc1cc(C#C[C@H]2O[C@H](CO)[C@@H](O)[C@H](O)[C@@H]2O)c2[nH]cnc2c1` [Compound 20, (2R,3S,4R,5S,6R)-2-[2-(6-butyl-3H-benzimidazol-4-yl)ethynyl]-6-(hydroxymethyl)tetrahydropyran-3,4,5-triol], the half-maximal inhibitory concentration (IC50) came out at 2 ± 0.2 nM.

For the molecule `CN1CC=C(c2cc(C#C[C@H]3O[C@H](CO)[C@@H](O)[C@H](O)[C@@H]3O)c3[nH]ncc3c2)CC1` [Compound 67, (2R,3S,4R,5S,6R)-2-(hydroxymethyl)-6-[2-[5-(1-methyl-3,6-dihydro-2H-pyridin-4-yl)-1H-indazol-7-yl]ethynyl]tetrahydropyran-3,4,5-triol], the half-inhibitory concentration (IC50) turned out to be 2 ± 0.9 nM.

On to `Cc1cc(C#C[C@H]2O[C@H](CO)[C@@H](O)[C@H](O)[C@@H]2O)c2[nH]ncc2c1` [Compound 2, (2R,3S,4R,5S,6R)-2-(hydroxymethyl)-6-[2-(5-methyl-1H-indazol-7-yl)ethynyl]tetrahydropyran-3,4,5-triol], for which the half-maximal inhibitory concentration (IC50) came to 14 ± 2 nM.

Take `OC[C@H]1O[C@H](C#Cc2cc(-n3cc(-c4ccccc4)nn3)cc3cn[nH]c23)[C@@H](O)[C@@H](O)[C@@H]1O` [Compound 66, (2R,3S,4R,5S,6R)-2-(hydroxymethyl)-6-[2-[5-(4-phenyltriazol-1-yl)-1H-indazol-7-yl]ethynyl]tetrahydropyran-3,4,5-triol]: the IC50 is 2 nM.

For the molecule `CC(=O)Nc1cccc(-c2cc(C#C[C@H]3O[C@H](CO)[C@@H](O)[C@H](O)[C@@H]3O)c3[nH]ncc3c2)c1` [Compound 36, N-[3-[7-[2-[(2R,3S,4R,5S,6R)-3,4,5-trihydroxy-6-(hydroxymethyl)tetrahydropyran-2-yl]ethynyl]-1H-indazol-5-yl]phenyl]acetamide], the IC50 was determined as 2 ± 0.2 nM.

As for `Cc1cc(F)ccc1-c1cc(C#C[C@H]2O[C@H](CO)[C@@H](O)[C@H](O)[C@@H]2O)c2[nH]ncc2c1` [Compound 94, (2R,3S,4R,5S,6R)-2-[2-[5-(4-fluoro-2-methyl-phenyl)-1H-indazol-7-yl]ethynyl]-6-(hydroxymethyl)tetrahydropyran-3,4,5-triol], the 50% inhibitory concentration (IC50) was 0.6 ± 0.3 nM.

Turning to `CC(C)(C)C#Cc1cc(C#C[C@H]2O[C@H](CO)[C@@H](O)[C@H](O)[C@@H]2O)c2[nH]ncc2c1` [Compound 44, (2R,3S,4R,5S,6R)-2-[2-[5-(3,3-dimethylbut-1-ynyl)-1H-indazol-7-yl]ethynyl]-6-(hydroxymethyl)tetrahydropyran-3,4,5-triol], the IC50 was determined as 5 ± 0.5 nM.

For `OC[C@H]1O[C@H](C#Cc2cc(-c3cccnc3)cc3cn[nH]c23)[C@@H](O)[C@@H](O)[C@@H]1O` [Compound 27, (2R,3S,4R,5S,6R)-2-(hydroxymethyl)-6-[2-[5-(3-pyridyl)-1H-indazol-7-yl]ethynyl]tetrahydropyran-3,4,5-triol], the IC50 stood at 0.2 ± 0.03 nM.

With `O=C(NC1CCCCC1)c1cc(C#C[C@H]2O[C@H](CO)[C@@H](O)[C@H](O)[C@@H]2O)c2[nH]ncc2c1` [Compound 63, N-cyclohexyl-7-[2-[(2R,3S,4R,5S,6R)-3,4,5-trihydroxy-6-(hydroxymethyl)tetrahydropyran-2-yl]ethynyl]-1H-indazole-5-carboxamide], the IC50 came out at 26 ± 1 nM.

As for `Cc1ccncc1-c1cc(C#C[C@H]2O[C@H](CO)[C@@H](O)[C@H](O)[C@@H]2O)c2[nH]ncc2c1` [Compound 77, (2R,3S,4R,5S,6R)-2-(hydroxymethyl)-6-[2-[5-(4-methyl-3-pyridyl)-1H-indazol-7-yl]ethynyl]tetrahydropyran-3,4,5-triol], the IC50 came to 0.1 ± 0.02 nM.

`OC[C@H]1O[C@H](C#Cc2nccc3cn[nH]c23)[C@@H](O)[C@@H](O)[C@@H]1O` [Compound 14, (2R,3S,4R,5S,6R)-2-(hydroxymethyl)-6-[2-(1H-pyrazolo[3,4-c]pyridin-7-yl)ethynyl]tetrahydropyran-3,4,5-triol]: the IC50 is 350 ± 80 nM.

Turning to `CS(=O)(=O)c1ccc(-c2cc(C#C[C@H]3O[C@H](CO)[C@@H](O)[C@H](O)[C@@H]3O)c3[nH]ncc3c2)cc1` [Compound 35, (2R,3S,4R,5S,6R)-2-(hydroxymethyl)-6-[2-[5-(4-methylsulfonylphenyl)-1H-indazol-7-yl]ethynyl]tetrahydropyran-3,4,5-triol], the half-inhibitory concentration (IC50) worked out at 0.5 ± 0.1 nM.

For `COc1ccc(-c2cc(C#C[C@H]3O[C@H](CO)[C@@H](O)[C@H](O)[C@@H]3O)c3[nH]ncc3c2)cn1` [Compound 73, (2R,3S,4R,5S,6R)-2-(hydroxymethyl)-6-[2-[5-(6-methoxy-3-pyridyl)-1H-indazol-7-yl]ethynyl]tetrahydropyran-3,4,5-triol], the IC50 amounted to 0.5 ± 0.09 nM.

On to `CN(C)c1ccc(-c2cc(C#C[C@H]3O[C@H](CO)[C@@H](O)[C@H](O)[C@@H]3O)c3[nH]ncc3c2)cc1` [Compound 29, (2R,3S,4R,5S,6R)-2-[2-[5-[4-(dimethylamino)phenyl]-1H-indazol-7-yl]ethynyl]-6-(hydroxymethyl)tetrahydropyran-3,4,5-triol], for which the IC50 came out at 1 ± 0.7 nM.

As to `Cc1ccc(-c2cc(C#C[C@H]3O[C@H](CO)[C@@H](O)[C@H](O)[C@@H]3O)c3[nH]ncc3c2)c(C)c1` [Compound 88, (2R,3S,4R,5S,6R)-2-[2-[5-(2,4-dimethylphenyl)-1H-indazol-7-yl]ethynyl]-6-(hydroxymethyl)tetrahydropyran-3,4,5-triol], the IC50 was 2 nM.

Turning to `OC[C@H]1O[C@H](C#Cc2cc(C#Cc3cccnc3)cc3cn[nH]c23)[C@@H](O)[C@@H](O)[C@@H]1O` [Compound 46, (2R,3S,4R,5S,6R)-2-(hydroxymethyl)-6-[2-[5-[2-(3-pyridyl)ethynyl]-1H-indazol-7-yl]ethynyl]tetrahydropyran-3,4,5-triol], the half-inhibitory concentration (IC50) is 3 ± 1 nM.

`OC[C@H]1O[C@H](C#Cc2cccc3c2NCC3)[C@@H](O)[C@@H](O)[C@@H]1O` [Compound 9, (2R,3S,4R,5S,6R)-2-(hydroxymethyl)-6-(2-indolin-7-ylethynyl)tetrahydropyran-3,4,5-triol]: the IC50 was determined as 725 ± 155 nM.

For `Cc1nc(O)ccc1-c1cc(C#C[C@H]2O[C@H](CO)[C@@H](O)[C@H](O)[C@@H]2O)c2[nH]ncc2c1` [Compound 80, (2R,3S,4R,5S,6R)-2-(hydroxymethyl)-6-[2-[5-(6-hydroxy-2-methyl-3-pyridyl)-1H-indazol-7-yl]ethynyl]tetrahydropyran-3,4,5-triol], the IC50 was determined as 0.2 ± 0.08 nM.

As for `N#Cc1cc(C#C[C@H]2O[C@H](CO)[C@@H](O)[C@H](O)[C@@H]2O)c2nc[nH]c2c1` [Compound 5, 7-[2-[(2R,3S,4R,5S,6R)-3,4,5-trihydroxy-6-(hydroxymethyl)tetrahydropyran-2-yl]ethynyl]-3H-benzimidazole-5-carbonitrile], the IC50 was 20 ± 2 nM.

In the case of `Cc1cc(-c2cc(C#C[C@H]3O[C@H](CO)[C@@H](O)[C@H](O)[C@@H]3O)c3[nH]ncc3c2)cc(C)n1` [Compound 83, (2R,3S,4R,5S,6R)-2-[2-[5-(2,6-dimethyl-4-pyridyl)-1H-indazol-7-yl]ethynyl]-6-(hydroxymethyl)tetrahydropyran-3,4,5-triol], the half-maximal inhibitory concentration (IC50) is 0.7 ± 0.5 nM.

With `Cc1nnc(-c2ccc(-c3cc(C#C[C@H]4O[C@H](CO)[C@@H](O)[C@H](O)[C@@H]4O)c4[nH]ncc4c3)cc2)o1` [Compound 39, (2R,3S,4R,5S,6R)-2-(hydroxymethyl)-6-[2-[5-[4-(5-methyl-1,3,4-oxadiazol-2-yl)phenyl]-1H-indazol-7-yl]ethynyl]tetrahydropyran-3,4,5-triol], the IC50 came out at 0.2 ± 0.05 nM.

As for `CCN(CC)CC#Cc1cc(C#C[C@H]2O[C@H](CO)[C@@H](O)[C@H](O)[C@@H]2O)c2[nH]ncc2c1` [Compound 53, (2R,3S,4R,5S,6R)-2-[2-[5-[3-(diethylamino)prop-1-ynyl]-1H-indazol-7-yl]ethynyl]-6-(hydroxymethyl)tetrahydropyran-3,4,5-triol], the IC50 worked out at 4 ± 0.5 nM.

Consider `OC[C@H]1O[C@H](C#Cc2cc(C3=CCCC3)cc3cn[nH]c23)[C@@H](O)[C@@H](O)[C@@H]1O` [Compound 70, (2R,3S,4R,5S,6R)-2-[2-[5-(cyclopenten-1-yl)-1H-indazol-7-yl]ethynyl]-6-(hydroxymethyl)tetrahydropyran-3,4,5-triol], for which the half-inhibitory concentration (IC50) is 0.2 ± 0.04 nM.

Take `OC[C@H]1O[C@H](C#Cc2cc(C#Cc3cccc(O)c3)cc3cn[nH]c23)[C@@H](O)[C@@H](O)[C@@H]1O` [Compound 47, (2R,3S,4R,5S,6R)-2-(hydroxymethyl)-6-[2-[5-[2-(3-hydroxyphenyl)ethynyl]-1H-indazol-7-yl]ethynyl]tetrahydropyran-3,4,5-triol]: the IC50 is 12 ± 6 nM.

In the case of `COc1ccc(Cn2ncc3cc(Br)cc(C#C[C@H]4O[C@H](CO)[C@@H](O)[C@H](O)[C@@H]4O)c32)cc1` [Compound 18, (2R,3S,4R,5S,6R)-2-[2-[5-bromo-1-[(4-methoxyphenyl)methyl]indazol-7-yl]ethynyl]-6-(hydroxymethyl)tetrahydropyran-3,4,5-triol], the IC50 is 67 ± 26 nM.

`OC[C@H]1O[C@H](C#Cc2cc(-c3ccc4nccn4c3)cc3cn[nH]c23)[C@@H](O)[C@@H](O)[C@@H]1O` [Compound 32, (2R,3S,4R,5S,6R)-2-(hydroxymethyl)-6-[2-(5-imidazo[1,2-a]pyridin-6-yl-1H-indazol-7-yl)ethynyl]tetrahydropyran-3,4,5-triol]: the 50% inhibitory concentration (IC50) came to 0.6 ± 0.005 nM.

In the case of `CN(C)C(=O)c1cc(C#C[C@H]2O[C@H](CO)[C@@H](O)[C@H](O)[C@@H]2O)c2[nH]ncc2c1` [Compound 59, N,N-dimethyl-7-[2-[(2R,3S,4R,5S,6R)-3,4,5-trihydroxy-6-(hydroxymethyl)tetrahydropyran-2-yl]ethynyl]-1H-indazole-5-carboxamide], the IC50 was 0.4 ± 0.2 nM.
